Source: US6960692B2, “Diaryl sulfide derivative, addition salt thereof, and immunosuppressant” (Kyorin Pharmaceutical Co., Ltd., priority 2001, dated 2005)

Tests used:
[1] = system: male C3H/HeN mice; experiment: Ability of test compounds to suppress graft host vs rejection in mice (popliteal lymph node weight); format: in vivo; details: right popliteal lymph node weight 4 days after injection of BALB/c stimulation cells
Excerpt: Ability of Test Compounds to Suppress Graft Host vs Rejection in Mice […] Spleens were collected from 9 to 11 week old male BALB/c mice (CLEA JAPAN Inc., CHARLES RIVER JAPAN Inc., or JAPAN SLC Inc.). The spleens were placed in a phosphate-buffered saline (PBS(-), NISSUI PHARMACEUTICAL Co., Ltd.) or in an RPMI-1640 medium (GIBCO […] Inc., or IWAKI GLASS Co., Ltd.) and were either passed through a stainless steel mesh, or gently pressed between two slide glasses and then passed through a cell strainer (70 μm, Falcon), to form a cell suspension. The suspension was then centrifuged and the supernatant was discarded. An ammonium chloride-Tris isotonic buffer was added to the suspension to lyse erythrocytes. The cells were then centrifuged and washed three times in PBS (-) or RPMI-1640 medium and were resuspended in an RPMI-1640 medium. […] The cells were again centrifuged and washed in PBS (-) or RPMI-1640 medium and were resuspended in an RPMI-1640 medium so that the medium would contain 2.5×10^8 cells/mL. This suspension served as a “stimulation cell suspension.” Using a 27G needle along with a microsyringe (Hamilton), 20 μL (5×10^6 cells/mouse) of the stimulation cell suspension was subcutaneously injected into the right hind footpad of 7 to 9 week old male C3H/HeN mice (CLEA JAPAN Inc., CHARLES RIVER JAPAN Inc., or JAPAN SLC Inc.). […]

[2] = system: male BALB/c mice; experiment: Ability of test compounds to suppress delayed-type hypersensitivity in mice (DNFB, ear thickness); format: in vivo; details: dose 1 mg/kg orally 30 minutes before DNFB challenge; ear thickness increase 24 hours after the challenge
Description: <Experiment 2> Ability of Test Compounds to Suppress Delayed-Type Hypersensitivity in Mice. […] The sensitization was done for 2 consecutive days (day 0 and day 1). On day 5, the mice were challenged with the antigen to induce delayed-type hypersensitive responses: First, the initial thickness of each ear was measured by the dial thickness gauge G (0.01-10 mm, OZAKI MFG Co., Ltd.) and a test compound was administered. 30 minutes after the administration, 10 μL of a 0.2% (v/v) DNFB solution was applied to the inner and outer surfaces of the right ear of each animal for antigen challenge. The left ear of each animal was challenged with the solvent alone. 24 hours after the challenge, the increase in the ear thickness was measured for each ear and the difference in thickness between the right and the left ears was determined for each individual. The test compound was dissolved, or suspended, in an ultra pure water and was orally administered at a dose of 0.1 mL/10 g of body weight. A control group was administered ultra pure water alone.

melting point | Structure (SMILES) | Inhibition (%) ([1]; dose 0.03 mg/kg intraperitoneally once a day for four consecutive days) | Inhibition (%) [2] | Inhibition (%) ([1]; dose 0.3 mg/kg intraperitoneally once a day for four consecutive days)
132 to 133 °C | Cl.NC(CO)(CO)CCCc1ccc(Sc2cccc(OCc3ccccc3)c2)cc1Cl [Example 36, 2-amino-2-[4-(3-benzyloxyphenylthio)-2-chlorophenyl]propyl-1,3-propanediol hydrochloride] | 85% | 86% | –
– | Cl.NC(CO)(CO)CCc1ccc(Sc2cccc(OCc3ccccc3)c2)cc1Cl [Example 46, 2-amino-2-[4-(3-benzyloxyphenylthio)-2-chlorophenyl]ethyl-1,3-propanediol Hydrochloride] | – | – | 80%
